Results taken from US20240002424A1, “HEXOSAMINE COMPOUNDS AND METHODS THEREOF” (National Institute of Immunology, priority 2021, published 2024).

Legend:
Assay type in all cases: cell-based, human
[1] = tested on: HL-60 cells; assay: Anti-CLA (HECA452) antibody binding by flow cytometry; details: 50 μM, 24 h
Method: Effect of HexNAc analogues on the expression of cutaneous lymphocyte antigen (CLA/HECA452) epitopes: HL-60 cells (3.0×10^5 cells/mL in 2.5 mL complete medium in 6-well plates) were treated with D, 1a, 1b, or 1d (50 mM), including untreated controls. After 24 h cells were harvested, washed in PBS (3×0.5 mL), aliquoted to 5.0×10^5 cells per sample, and incubated with rat anti-human CLA (HECA452) antibody (5.0 mg/mL) in PBS (50 mL) at 4° C. After 1.0 h, cells were washed with PBS (2×0.5 mL) and stained with AlexaFluor488-conjugated anti-rat IgM (10 mg/mL) in PBS (50 mL) at 4° C. After 1.0 h, cells were washed with PBS (2×0.5 mL), resuspended in PBS (0.2 mL) and treated with PI (2.5 mg/mL). Additionally control samples of cells treated with (i) isotype antibody followed by secondary antibody and (ii) only secondary antibody were prepared. Cells were gated on PI-negative population and analyzed by flow cytometry as given above. Two replicate samples were analyzed for each condition and each sample was counted twice by flow cytometry as mentioned above.

[2] = tested on: HL-60 cells; assay: SNA lectin binding on intact cells by flow cytometry; details: 50 μM, 24 h
[3] = tested on: HL-60 cells; assay: NeuAz expression by SPAAC with DBCO-Cy5 and flow cytometry, competition with 1c; details: 50 μM with 1c 50 μM, 24 h
Method: Estimation of NeuAz expression by 1c in the presence of peracetylated ManNAc analogues: Jurkat cells (3.0×10^5 cells/mL in 3.0 mL per well in 6-well plates) were incubated with (i) D, (ii) 1a, 1b, 1c, or 1d alone (50 mM) or (iii) 1a, 1b, or 1d (50 mM) in combination with 1c (50 mM). After 24 h, cells were harvested, washed using FSB, aliquoted to 5.0×10^5 cells per sample, and processed as mentioned above for estimation of NeuAz expression using DBCO-Cy5 ([…]). Experiments using HL-60 cells were performed using the same procedure.
Having confirmed metabolic acceptability in Jurkat cells, the compounds were tested on HL-60 (human acute myeloid leukemia) cells which are a reliable model for neutrophil adhesion. The effect on competitive suppression of NeuAz expression was studied using 1c as a reporter. HL-60 cells were treated with 1c either alone (50 μM) or in combination with ManNAc analogues (50 μM), including the straight chain derivatives, for 24 h followed by DBCO-Cy5 ligation. […] The decreasing ability of linear alkyl moieties (1d-1g), as a function of chain length, for suppression of NeuAz expression is in contrast to the cycloalkyl moieties. […] Similarly, 1a induced a reduction of 40% compared to only a 15% reduction by 1f.

SMILES | change in HECA-452 binding (in words) [1] | SNA binding on intact cells compared to untreated cells [2] | NeuAz expression with respect to 1c alone (100%) [3] [%] | suppression of NeuAz expression (in words) [3] | decrease in HECA-452 binding compared to untreated cells [1] [%] | reduction of NeuAz expression with respect to controls [3] [%]
CC(=O)NC1C(OC(C)=O)OC(COC(C)=O)[C@@H](OC(C)=O)[C@@H]1OC(C)=O (stereo partly drawn) [Compound 1d, 1,3,4,6-tetra-O-acetyl-2-acetylamino-2-deoxy-α/β-D-mannopyranose] | moderate increase | no significant differences | 40 | Maximum suppression | – | –
CC(=O)OC[C@H]1OC(OC(C)=O)[C@@H](NC(=O)C2CCC2)[C@@H](OC(C)=O)[C@@H]1OC(C)=O (stereo partly drawn) [Compound 1b, (3S,4R,5S,6R)-6-(acetoxymethyl)-3-(cyclobutanecarboxamido)tetrahydro-2H-pyran-2,4,5-triyl triacetate] | – | no significant differences | 55 | – | 40 | 45
CC(=O)OC[C@H]1O[C@H](OC(C)=O)[C@@H](NC(=O)C2CC2)[C@@H](OC(C)=O)[C@@H]1OC(C)=O [Compound 1a, 1,3,4,6-tetra-O-acetyl-2-cyclopropanoylamino-2-deoxy-α-D-mannopyranose] | – | no significant differences | 60 | – | 40 | 40
